The record followed here is ChEMBL document CHEMBL4613209, “Quinolone hybrids and their anti-cancer activities: An overview” (Eur J Med Chem, 2019).

In assay [1] the test system is MCF7. In words: Cytotoxicity against human MCF7 cells assessed as reduction in cell viability by MTT assay. The class given is functional, cell-based.
The subject of assay [2] is SK-MEL3. The assay can be described thus: Cytotoxicity against human SK-MEL-3 cells assessed as reduction in cell viability by MTT assay. The format is functional, cell-based. In general terms: Tetrazolium assays rely on reduction of a dye to a coloured formazan, in cell work by metabolically active cells.
Assay [3] concerns A-431. The assay can be described thus: Cytotoxicity against human A431 cells assessed as reduction in cell viability by MTT assay. The format is functional, cell-based.
For assay [4], the system named is EJ. In words: Cytotoxicity against human EJ cells assessed as reduction in cell viability by MTT assay. The class given is functional, cell-based.
Assay [5] deals with SW480. In words: Cytotoxicity against human SW480 cells assessed as reduction in cell viability by MTT assay. The class given is functional, cell-based.
Assay [6] concerns MCF7. The assay can be described thus: Cytotoxicity against human MCF7 cells assessed as reduction in cell viability. The format is functional, cell-based.
Assay [7] concerns SW-620. In words: Cytotoxicity against human SW620 cells assessed as reduction in cell viability. The class given is functional, cell-based.
The subject of assay [8] is MGC-803. The assay can be described thus: Cytotoxicity against human MGC803 cells assessed as reduction in cell viability. The class given is functional, cell-based.
The test system of assay [9] is PC-3. The assay can be described thus: Cytotoxicity against human PC3 cells assessed as reduction in cell viability. The class given is functional, cell-based.
Assay [10] deals with NCI-H460. In words: Cytotoxicity against human NCI-H460 cells assessed as reduction in cell viability. The class given is functional, cell-based.
Assay [11] concerns HepG2. The assay can be described thus: Cytotoxicity against human HepG2 cells assessed as reduction in cell viability. The class given is functional, cell-based.
For assay [12], the system named is GES1. The assay can be described thus: Cytotoxicity against human GES-1 cells assessed as reduction in cell viability. The class given is cell-based.
Assay [13] relates to L1210. In words: Cytotoxicity against mouse L1210 cells assessed as reduction in cell viability. The class given is functional, cell-based.
The test system of assay [14] is HL-60. The assay can be described thus: Cytotoxicity against human HL60 cells assessed as reduction in cell viability. The format is functional, cell-based.
For assay [15], the system named is CHO. The assay can be described thus: Cytotoxicity against CHO cells assessed as reduction in cell viability. The settings on record: Cricetulus griseus. The class given is functional, cell-based.

SMILES strings stand for the structures. pIC50: −log10 of the molar value. Bounds are passed on as bounds.

In general, pIC50 refers to the negative decadic logarithm of the IC50, by convention in mol/L.

With `CCn1cc(C(=O)O)c(=O)c2cc(F)c(N3CCN(C/C(=N/OCc4ccccc4)c4ccc(Cl)s4)CC3)cc21`, the pIC50 in [1], in assay [2], in [3], in [4] and in assay [5] was not below 4.70 each time.
As for `C[C@H]1COc2c(N3CCN(C)CC3)c(F)cc3c(=O)c(-c4nnc(NC(=O)CCCC(=O)O)s4)cn1c23`, the negative logarithm of the IC50 (pIC50) in assay [6], in assay [7], in assay [8], in assay [9], in assay [10] and in [11] was 4.84 to 5.96 each time. Further, the pIC50 in [12] is less than 4.09.
Regarding `C[C@H]1COc2c(N3CCN(C)CC3)c(F)cc3c(=O)c(-c4nnc(NC(=O)CCCCCC(=O)Nc5ccccc5N)s4)cn1c23`, the pIC50 in assay [6], in [7], in assay [8], in assay [9], in [10] and in [11] was 6.69 to 7.34 in each case. In addition, in assay [12], the negative-log IC50 (pIC50) was less than 4.09.
In the case of `CCn1cc(C(=O)O)c(=O)c2cc(F)c(N3CCNCC3)nc21` [ENOXACIN], the pIC50 in assay [1], in assay [2], in [3], in assay [4] and in assay [5] was 3.62 to 3.86 throughout.
Turning to `C[C@H]1COc2c(N3CCN(C)CC3)c(F)cc3c(=O)c(-c4nnc(NC(=O)CCCCCCCCC(=O)Nc5ccccc5N)s4)cn1c23`, the negative-log IC50 (pIC50) in assay [6], in assay [7], in assay [8], in assay [9], in assay [10] and in assay [11] was 6.69 to 7.34 throughout. In assay [12], the pIC50 was less than 4.09.
For the molecule `CO/N=C(/CN1CCN(c2cc3c(cc2F)c(=O)c(C(=O)O)cn3C2CC2)CC1)c1ccc(Cl)s1`, the negative logarithm of the IC50 (pIC50) in [1], in assay [2], in [3], in assay [4] and in assay [5] was not below 4.70 each time.
For the molecule `CCn1cc(C(=O)O)c(=O)c2cc(F)c(N3CCN(C/C(=N/O)c4cccs4)CC3)nc21`, the pIC50 in assay [1], in assay [2], in assay [3], in assay [4] and in assay [5] was 3.88 to 5.70 in each case.
Turning to `O=C(O)c1cn(C2CC2)c2cc(N3CCN(C/C(=N/OCc4ccccc4)c4ccc(Cl)s4)CC3)c(F)cc2c1=O`, the negative logarithm of the IC50 (pIC50) in assay [1], in [2], in assay [3], in assay [4] and in assay [5] was not below 4.70 throughout.
Turning to `CCn1cc(C(=O)O)c(=O)c2cc(F)c(N3CCN(CC(=O)c4cccs4)CC3)cc21`, the pIC50 in assay [1], in [2], in assay [3], in [4] and in [5] was 3.88 to 5.70 in each case.
Take `CCn1cc(C(=O)O)c(=O)c2cc(F)c(N3CCN(CC(=O)c4ccc(Cl)s4)CC3)nc21`: the pIC50 in [1], in assay [2], in assay [3], in assay [4] and in [5] was not above 4.00 throughout.
Take `O=C(CN1CCN(c2cc3c(cc2F)c(=O)c(C(=O)O)cn3C2CC2)CC1)c1cccs1`: the negative logarithm of the IC50 (pIC50) in [1], in [2], in [3], in assay [4] and in [5] was 3.88 to 5.70 each time.
Turning to `CCn1cc(C(=O)O)c(=O)c2cc(F)c(N3CCN(CC(=O)c4cccs4)CC3)nc21`, the pIC50 in [1], in assay [2], in [3], in assay [4] and in [5] was 3.88 to 5.70 each time.
In the case of `O=C(O)c1cn(C2CC2)c2cc(N3CCN(C/C(=N/OCc4ccccc4)c4cccs4)CC3)c(F)cc2c1=O`, the negative logarithm of the IC50 (pIC50) in [1], in [2], in assay [3], in assay [4] and in [5] was 3.88 to 5.70 in each case.
With `CCn1cc(C(=O)O)c(=O)c2cc(F)c(N3CCN(CC(=O)c4ccc(Cl)s4)CC3)cc21`, the pIC50 in [1], in assay [2], in [3], in assay [4] and in assay [5] was not above 4.00 each time.
On to `CCn1cc(C(=O)O)c(=O)c2cc(F)c(N3CCN(C/C(=N/OCc4ccccc4)c4cccs4)CC3)cc21`, for which the negative-log IC50 (pIC50) in assay [1], in assay [2], in assay [3], in assay [4] and in assay [5] was 3.88 to 5.70 in each case.
For the molecule `CCn1cc(C(=O)O)c(=O)c2cc(F)c(N3CCN(C/C(=N/OC)c4cccs4)CC3)cc21`, the pIC50 in [1], in assay [2], in [3], in assay [4] and in [5] was 3.88 to 5.70 in each case.
On to `CCn1cc(C(=O)O)c(=O)c2cc(F)c(N3CCN(C/C(=N/OCc4ccccc4)c4cccs4)CC3)nc21`, for which the negative-log IC50 (pIC50) in [1], in assay [2], in assay [3], in assay [4] and in assay [5] was 3.88 to 5.70 each time.
Regarding `CCN1CCN(c2cc3c(cc2F)c(=O)c(-c2nn4c(-c5cn(C6CC6)c6cc(N7CCN(CC)CC7)c(F)cc6c5=O)nnc4s2)cn3C2CC2)CC1`, the pIC50 in [13], in [14] and in assay [15] was 5.28 to 6.92 in each case.
With `O=C(O)c1cn(C2CC2)c2cc(N3CCN(C/C(=N/O)c4ccc(Cl)s4)CC3)c(F)cc2c1=O`, the pIC50 in assay [1], in assay [2], in [3], in assay [4] and in assay [5] was not below 4.70 in each case.
Turning to `CCN1CCN(c2cc3c(cc2F)c(=O)c(-c2nn4c(-c5cn(C6CC6)c6cc(N7CCNCC7)c(F)cc6c5=O)nnc4s2)cn3C2CC2)CC1`, the negative logarithm of the IC50 (pIC50) in [13], in assay [14] and in assay [15] was 5.28 to 6.92 each time.
As for `CCn1cc(C(=O)O)c(=O)c2cc(F)c(N3CCN(C/C(=N/OCc4ccccc4)c4ccc(Cl)s4)CC3)nc21`, the pIC50 in assay [1], in assay [2], in assay [3], in assay [4] and in assay [5] was not below 4.70 each time.
Take `CCn1cc(C(=O)O)c(=O)c2cc(F)c(N3CCN(C/C(=N/OC)c4ccc(Cl)s4)CC3)nc21`: the negative-log IC50 (pIC50) in assay [1], in assay [2], in assay [3], in assay [4] and in assay [5] was not below 4.70 throughout.
Turning to `CCN1CCN(c2cc3c(cc2F)c(=O)c(-c2nnc4sc(-c5cn(C6CC6)c6cc(N7CCNCC7)c(F)cc6c5=O)nn24)cn3C2CC2)CC1`, the negative-log IC50 (pIC50) in assay [13], in assay [14] and in assay [15] was 5.28 to 6.92 throughout.
As to `CCN1CCN(c2cc3c(cc2F)c(=O)c(-c2nn4c(-c5cn(C6CC6)c6cc(N7CCN(C)CC7)c(F)cc6c5=O)nnc4s2)nn3C2CC2)CC1`, the negative logarithm of the IC50 (pIC50) in assay [13], in assay [14] and in [15] was 5.28 to 6.92 each time.
Consider `CCn1cc(C(=O)O)c(=O)c2cc(F)c(N3CCN(C/C(=N/O)c4ccc(Cl)s4)CC3)cc21`, for which the negative-log IC50 (pIC50) in [1], in [2], in assay [3], in assay [4] and in [5] was not below 4.70 each time.
Take `CCN1CCN(c2cc3c(cc2F)c(=O)c(-c2nnc4sc(-c5cn6c7c(c(N8CCN(C)CC8)c(F)cc7c5=O)OCC6C)nn24)cn3C2CC2)CC1` (stereo not drawn): the negative logarithm of the IC50 (pIC50) in assay [13], in [14] and in [15] was 4.63 to 4.85 in each case.
With `O=C(CN1CCN(c2cc3c(cc2F)c(=O)c(C(=O)O)cn3C2CC2)CC1)c1ccc(Cl)s1`, the pIC50 in assay [1], in [2], in assay [3], in assay [4] and in [5] was not above 4.00 each time.
Regarding `CCn1cc(C(=O)O)c(=O)c2cc(F)c(N3CCN(C/C(=N/O)c4ccc(Cl)s4)CC3)nc21`, the pIC50 in assay [1], in assay [2], in [3], in assay [4] and in assay [5] was not below 4.70 each time.
For `CCn1cc(C(=O)O)c(=O)c2cc(F)c(N3CCN(C/C(=N/OC)c4cccs4)CC3)nc21`, the pIC50 in assay [1], in assay [2], in assay [3], in assay [4] and in assay [5] was 3.88 to 5.70 each time.
On to `O=C(N/N=C/c1ccc(F)cc1)c1cn(C2CC2)c2cc(N/N=C/c3ccc(F)cc3)c(F)cc2c1=O`, for which the pIC50 in [13], in assay [14] and in [15] was 4.63 to 5.82 each time.
Consider `Cc1ccc(/C=N/NC(=O)c2cn(C3CC3)c3cc(N/N=C/c4ccc(C)cc4)c(F)cc3c2=O)cc1`, for which the negative-log IC50 (pIC50) in assay [13], in assay [14] and in assay [15] was 4.63 to 5.82 throughout.
With `CC1COc2c(N3CCN(C)CC3)c(F)cc3c(=O)c(-c4nn5c(-c6cn(C7CC7)c7cc(N8CCN(C)CC8)c(F)cc7c6=O)nnc5s4)cn1c23` (stereo not drawn), the negative logarithm of the IC50 (pIC50) in assay [13], in [14] and in assay [15] was 4.63 to 4.85 in each case.
As to `COc1ccccc1/C=N/NC(=O)c1cn(C2CC2)c2cc(N/N=C/c3ccccc3OC)c(F)cc2c1=O`, the negative-log IC50 (pIC50) in [13], in assay [14] and in [15] was 4.63 to 5.82 in each case.
